Consider 20 molecules from patent US5728830A, “Farnesyltransferase inhibitor” (Kyowa Hakko Kogyo Co., Ltd., priority 1993, dated 1998).

The target of experiment [1] is T1, farnesyltransferase (FTase) (Bos taurus, UniProt P29702+P49355).
T1 construct: An extract of minced bovine brain was subjected to column chromatography on DEAE-Sephacel (Pharmacia); from tissue; host or cells: bovine brain
The experiment is described as follows: Farnesyltransferase Inhibitory Activity ([3H]SPA FTase assay, farnesylation of C-terminal peptide of lamin B). It is filed as biochemical. Particulars: bovine brain crude enzyme. Here is the method: Farnesyltransferase Inhibitory Activity
An extract of minced bovine brain was subjected to column chromatography on DEAE-Sephacel (Pharmacia). The active fraction was concentrated by ultrafiltration and dialyzed against a mixture of 20 mM Tris-HCl (pH 8.0), 50 mM NaCl, […], 1 mM dithiothreitol (DTT), and 0.2 mM phenylmethylsulfonyl fluoride (PMSF). The resulting dialysate was used as a crude enzyme liquid of farnesyltransferase (FTase). The measurement of activity was carried out by means of an FTase [^3 H]SPA enzyme assay kit (Amersham) using the enzyme obtained by the above method.

In another experiment the test system is BALB 3T3/H-ras cells. The experiment is described as follows: Anticell Activity (growth inhibition of BALB 3T3 cells transformed by the oncogene H-ras, Giemsa staining). It is filed as cell-based. The following applies: Mus musculus, 72 hours, read-out: IC50 Anti-BALB 3T3/H-ras Cell Activity. Here is the method:
The anticell activity was measured using BALB 3T3 cells transformed by the oncogene H-ras (hereinafter referred to as BALB 3T3/H-ras cells).
BALB 3T3/H-ras cells were suspended in a DME medium (Nissui) containing 10% bovine fetal serum (hereinafter referred to as medium A) to a cell concentration of 3.0×10^4 cells/ml. Each well of a 96-well microtiter plate was inoculated with 0.1 ml of the cell suspension, and the system was cultured in a CO2 gas incubator at 37° C. for 20 hours. To each well was added 0.1 ml of a sample (test compound) diluted appropriately with medium A, followed by culturing in the CO2 gas incubator at 37° C. for 72 hours. The culture supernatant was removed, and the residue was washed once with physiological saline and treated with 0.1 ml of methanol for 10 minutes to immobilize the cells. The cells were stained with 0.1 ml of a Giemsa staining solution [Giemsa staining stock solution Merck Art9204 (Merck & Co., Inc.):physiological saline=1:10] for 5 minutes. The staining solution was removed, and the residue was washed once with 0.2 ml of water. The pigment was extracted with 0.2 ml of 0.1N hydrochloric acid, and the absorbance at 620 nm was measured with a microplate reader.

In experiment [2] the test system is isogenic tumor in K-BALB mice. The experiment is described as follows: Antitumor Activity on Isogenic Tumor System in K-BALB Mice. The format is in vivo. The following applies: intraperitoneal, 5 consecutive days from 7th day after transplantation, BALB/c mouse. How it is done: Antitumor Activity on Isogenic Tumor System in K-BALB Mice
The antitumor activity on an isogenic tumor system in K-BALB mice was measured according to the method described in Proc. Natl. Acad. Sci., 90, 2281 (1993). That is, an isogenic tumor in K-BALB mice was resected from a donor mouse, and a 2×2×2 (8) mm^3 tumor piece was transplanted to the subcutaneous site of the abdomen of a BALB/c mouse by means of a trocar. After the graft survival was confirmed on the 7th day from the transplantation, a test compound was intraperitoneally administered for 5 consecutive days from the same day. The longer diameter and shorter diameter of the tumor were measured with a sliding gauge, and the tumor volume was calculated according to the formula; (longer diameter)×(shorter diameter)^2 /2 [Cancer Chemother. Rep., Part III, 3, 1 (1972)]. The antitumor effect was evaluated in terms of T/C, the ratio of the tumor volume of a test compound-treated group (T) to that of an untreated group (C).

For experiment [3], the system named is Candida albicans ATCC 10231. The experiment is described as follows: Antibacterial Activity, agar dilution method, Candida albicans. It is filed as cell-based. Here is the method:
(§1) The antibacterial activity was measured by the agar dilution method using a medium (pH 7) prepared by dissolving 3 g of Bacto-tryptone (Difco), 3 g of meat extract, 1 g of yeast extract, 1 g of glucose, and 16 g of agar in 1 liter of water. The antibacterial activity of Compounds I are expressed in terms of minimum growth inhibitory concentration (MIC).
CA; Candida albicans ATCC 10231
For orientation: Agar dilution tests growth on a series of plates holding different concentrations.

Experiment [4] relates to Enterococcus faecium ATCC 10541. Nature of the experiment: Antibacterial Activity, agar dilution method, Enterococcus faecium. It is filed as cell-based. How it is done:
as §1
EF; Enterococcus faecium ATCC 10541

In experiment [5] the test system is Bacillus subtilis No. 10707. The experiment is described as follows: Antibacterial Activity, agar dilution method, Bacillus subtilis. It is filed as cell-based. How it is done:
as §1
BS; Bacillus subtilis No. 10707

Setting [6] is: ATCC10231, Candida albicans ATCC 10231, agar dilution, pH 7, read-out: MIC CA.
The mark [7] stands for this setting: Bacillus subtilis No. 10707, agar dilution, pH 7, read-out: MIC BS.
Where [8] appears, read: Candida albicans, ATCC10231, pH 7, read-out: MIC CA.
The mark [9] stands for this setting: Bacillus subtilis, NO.10707, pH 7, read-out: MIC BS.
The mark [10] stands for this setting: Enterococcus faecium, ATCC10541, pH 7, read-out: MIC EF.

≈ marks a conversion by molar mass, not a printed value. Like-named read-outs stand apart in the source and are kept apart here.

For `CC(=O)SC1C(=O)N(c2ccccc2)C(SC(C)=O)C(=O)N1C` (centres unmarked) [Compound I-1], the IC50 is 5 µM in experiment [1] and 0.2 µM in the experiment on BALB 3T3/H-ras cells.

`COc1ccccc1N1C(=O)C(SC(C)=O)N(C)C(=O)C1SC(C)=O` (centres unmarked) [Compound I-2]: the IC50 in experiment [1] came to 9 µM; with BALB 3T3/H-ras cells it was 0.5 µM.

Regarding `COc1ccc(Br)cc1N1C(=O)C(SC(C)=O)N(C)C(=O)C1SC(C)=O` (centres unmarked) [Compound I-3], the results for the IC50 (in experiment [1]; in the experiment with BALB 3T3/H-ras cells) were 9 µM and 1.5 µM, respectively.

As for `CC(=O)SC1C(=O)N(c2ccccc2)C(SC(C)=O)C(=O)N1c1ccccc1` (centres unmarked) [Compound I-4], the IC50 was 12 µM in experiment [1] and 0.9 µM with BALB 3T3/H-ras cells. Also, the “T/C (ratio of tumor volume, treated to untreated)” value in experiment [2] (5.0 mg/kg) was found to be 0.41.

Consider `COCN1C(=O)C(SC(C)=O)N(COC)C(=O)C1SC(C)=O` (centres unmarked) [Compound I-5], for which the results for the IC50 (in experiment [1]; in the experiment with BALB 3T3/H-ras cells) were 8 µM and 0.4 µM, respectively.

The term MIC denotes the lowest concentration that inhibits growth of the organism. For the molecule `CC(=O)SC1C(=O)N(Cc2ccccc2)C(SC(C)=O)C(=O)N1Cc1ccccc1` (centres unmarked) [Compound I-6], the IC50 was 7 µM in experiment [1] and 4 µM with BALB 3T3/H-ras cells. The MIC in experiment [3] (setting [6]) was 10 µg/mL (≈ 22.6 µM); in experiment [4] (ATCC10541, Enterococcus faecium ATCC 10541, agar dilution, pH 7, read-out: MIC EF), 42 µg/mL (≈ 94.9 µM); in experiment [5] (setting [7]), 21 µg/mL (≈ 47.5 µM).

In the case of `CN1C(=O)C2SSC1C(=O)N2c1ccccc1` (centres unmarked) [Compound I-7], the results for the IC50 (in experiment [1]; in the experiment on BALB 3T3/H-ras cells) were 60 µM and 0.2 µM, respectively.

As for `O=C1C2SSC(C(=O)N2c2ccccc2)N1c1ccccc1` [Compound I-8], the values for the IC50 (in experiment [1]; in the experiment with BALB 3T3/H-ras cells) were 10 µM and 0.7 µM, respectively.

As for `O=C(SC1C(=O)N(c2ccccc2)C(SC(=O)c2ccccc2)C(=O)N1c1ccccc1)c1ccccc1` (centres unmarked) [Compound I-9], the values for the IC50 (in experiment [1]; in the experiment with BALB 3T3/H-ras cells) were 9 µM and 3 µM, respectively.

For the molecule `O=C(Oc1ccccc1)SC1C(=O)N(c2ccccc2)C(SC(=O)Oc2ccccc2)C(=O)N1c1ccccc1` (centres unmarked) [Compound I-10], the IC50 in experiment [1] stood at 25 µM; in the experiment on BALB 3T3/H-ras cells it was 1 µM. For the same molecule, the MIC in experiment [3] (setting [6]) worked out at 42 µg/mL (≈ 73.6 µM).

For `CN1C(=O)C2SSC1(COCc1ccccc1)C(=O)N2c1ccccc1` (centres unmarked) [Compound I-11], the IC50 (in experiment [1]; in the experiment on BALB 3T3/H-ras cells) was 3 µM throughout. Besides, the MIC in experiment [3] (setting [8]) is 0.46 µg/mL (≈ 1.19 µM); in experiment [5] (setting [9]), 7.3 µg/mL (≈ 18.9 µM).

In the case of `CN1C(=O)C2(COCc3ccccc3)SSC1(COCc1ccccc1)C(=O)N2c1ccccc1` (centres unmarked) [Compound I-12], the results for the IC50 (in experiment [1]; with BALB 3T3/H-ras cells) were 3 µM and 1 µM, respectively. Also, the minimum inhibitory concentration (MIC) in experiment [3] (setting [8]) and in experiment [5] (setting [9]) was 42 µg/mL (≈ 82.9 µM) in each case.

As to `CN1C(=O)C2SSC1(CO)C(=O)N2c1ccccc1` (centres unmarked) [Compound I-13], the IC50 is 5 µM in experiment [1] and 0.1 µM in the experiment with BALB 3T3/H-ras cells. Further, the minimum inhibitory concentration (MIC) was 42 µg/mL (≈ 142 µM) in experiment [3] (setting [8]), 0.16 µg/mL (≈ 0.54 µM) in experiment [4] (setting [10]) and 0.041 µg/mL (≈ 0.138 µM) in experiment [5] (setting [9]). The “T/C (ratio of tumor volume, treated to untreated)” value in experiment [2] (0.75 mg/kg) amounted to 0.44.

Regarding `COc1ccccc1N1C(=O)C2(CO)SSC1C(=O)N2C` (centres unmarked) [Compound I-14], the IC50 was 6 µM in experiment [1] and 0.3 µM with BALB 3T3/H-ras cells. For the same molecule, the MIC in experiment [5] (setting [9]) was determined as 7.3 µg/mL (≈ 22.4 µM).

Take `COc1ccccc1N1C(=O)C2(CO)SSC1(CO)C(=O)N2C` (centres unmarked) [Compound I-15]: the values for the IC50 (in experiment [1]; in the experiment with BALB 3T3/H-ras cells) were 7 µM and 0.3 µM, respectively. For the same molecule, the minimum inhibitory concentration (MIC) in experiment [4] (setting [10]) amounted to 1.3 µg/mL (≈ 3.65 µM); in experiment [5] (setting [9]), 0.33 µg/mL (≈ 0.926 µM).

As for `CC(=O)OCC1(SC(C)=O)C(=O)N(c2ccccc2)C(SC(C)=O)C(=O)N1C` (centres unmarked) [Compound I-16], the IC50 was determined as 20 µM in experiment [1] and 1.7 µM in the experiment with BALB 3T3/H-ras cells. Also, the MIC in experiment [4] (setting [10]) stood at 42 µg/mL (≈ 98.9 µM); in experiment [5] (setting [9]), 5.2 µg/mL (≈ 12.2 µM).

Consider `COCN1C(=O)C(SC(=O)Oc2ccccc2)N(COC)C(=O)C1SC(=O)Oc1ccccc1` (centres unmarked) [Compound I-17], for which the IC50 in experiment [1] is 5 µM; with BALB 3T3/H-ras cells it was 0.3 µM. Besides, in experiment [5] (setting [7]), the MIC is 42 µg/mL (≈ 82.9 µM).

Turning to `O=C1C2SSC(C(=O)N2Cc2ccccc2)N1Cc1ccccc1` [Compound I-19], in experiment [1], the IC50 turned out to be 7 µM. Moreover, the figures for the MIC in experiment [3] (setting [8]), in experiment [4] (setting [10]) and in experiment [5] (setting [9]) were 2.6 µg/mL (≈ 7.29 µM), 83 µg/mL (≈ 233 µM) and 83 µg/mL (≈ 233 µM), respectively.

For the molecule `CCOC(=O)SC1C(=O)N(c2ccccc2)C(SC(=O)OCC)C(=O)N1c1ccccc1` (centres unmarked) [Compound I-20], the IC50 in experiment [1] amounted to 45 µM.

As for `CN1C(=O)C2(CO)SSC1(CO)C(=O)N2c1ccccc1` (centres unmarked) [Compound I-21], the IC50 in experiment [1] was 3 µM; in the experiment on BALB 3T3/H-ras cells, 0.2 µM. Besides, the results for the MIC in experiment [4] (setting [10]) and in experiment [5] (setting [9]) were 0.33 µg/mL (≈ 1.01 µM) and 21 µg/mL (≈ 64.3 µM), respectively.
